The MIC is the least concentration at which growth counts as inhibited. Low values mean inhibition by little substance, high ones a need for much substance.

This note sets out measurements from ChEMBL document CHEMBL6153122, “Antimycobacterial Activities of the Zanthoxylum leprieurii Metabolite Adubangoamide and Non-Natural Fagaramide Analogues” (2025).

Converted amounts (≈) assume the structure as drawn.

Assay type in all cases: functional
In test [1] the test system is Mycobacterium tuberculosis. The test can be described thus: Antimycobacterial activity against drug-susceptible Mycobacterium tuberculosis H37Rv by microplate Alamar blue assay. For orientation: The colour change of resazurin is a common sign of viable cells or microbes.
Test [2] deals with Mycobacterium tuberculosis. The test can be described thus: Potency index, ratio of trans-fagaramide MIC to test compound MIC for antimycobacterial activity against drug-susceptible Mycobacterium tuberculosis H37Rv.
In test [3] the test system is Mycobacterium tuberculosis. The test can be described thus: Antimycobacterial activity against drug-susceptible Mycobacterium tuberculosis H37Rv.

Molecule `O=C(/C=C/c1ccc2c(c1)OCO2)NCc1ccccc1` had an MIC in test [1] of 167 µM (≈ 47 µg/mL).
As to `O=C(/C=C/c1ccc2c(c1)OCO2)NCc1ccc(N2CCC(C(F)(F)F)CC2)cc1`, the Ratio in test [2] is 6. Also, inhibition of growth in test [1] (MIC) required 4.5 µM (≈ 1.95 µg/mL).
On the same counts, the results for `CC(C)=CCOc1ccc(/C=C/C(=O)NCC(C)C)cc1` are 3 and 10 µM (≈ 2.87 µg/mL).
In test [1], `O=C(/C=C/c1ccc2c(c1)OCO2)NCc1ccc(N2CCC(c3ccc(F)cc3)CC2)cc1` returned an MIC of 17 µM (≈ 7.8 µg/mL).
The same measure, in the same setting: the figure for `COc1cccc(CNC(=O)/C=C/c2ccc3c(c2)OCO3)c1` is 200 µM (≈ 62.3 µg/mL).
Same read-out and setting: the same measure for `O=C(/C=C/c1ccc2c(c1)OCO2)NCc1ccc(C(F)(F)F)cc1F`: 21 µM (≈ 7.71 µg/mL).
Take `O=C(/C=C/c1ccc2c(c1)OCO2)NCc1cc(F)cc(F)c1`: the Ratio in test [2] amounted to 6. This molecule showed a minimal inhibitory concentration (MIC) in test [1] of 6.1 µM (≈ 1.94 µg/mL).
On to `CC(C)CNC(=O)/C=C/c1ccc2c(c1)OCO2` [FOGARAMIDE], for which inhibition of growth in test [3] (MIC) required 32 µM (≈ 7.91 µg/mL).
With `CO[C@H]1/C=C/O[C@@]2(C)Oc3c(C)c(O)c4c(O)c(c(/C=N/N5CCN(C)CC5)c(O)c4c3C2=O)NC(=O)/C(C)=C\C=C\[C@H](C)[C@H](O)[C@@H](C)[C@@H](O)[C@@H](C)[C@H](OC(C)=O)[C@@H]1C` [RIFAMPIN], the MIC in test [1] stood at 0.3 µM (≈ 0.247 µg/mL).
On the same count and under the same terms, the same measure for `O=C(/C=C/c1ccc2c(c1)OCO2)NCc1ccccc1Cl`: 100 µM (≈ 31.6 µg/mL).
Regarding `CN(C)c1ccc(CNC(=O)/C=C/c2ccc3c(c2)OCO3)cc1`, the Ratio in test [2] is listed as 6. Also, 6 µM (≈ 1.95 µg/mL) was the least that counted as inhibitory in test [1] (MIC).
